The values below come from patent US7754718B2 (priority 2004, dated 2010).

Data set [1] has as its system HSV-2. As to the kind of experiment: In vitro antiviral assay for HSV-2. In kind it is cell-based, Herpes Simplex Virus 2. To be noted: Human alphaherpesvirus 2, read-out: Antiviral Activities (EC50, μM) HSV-2. In outline:
(§1)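 Performed according to previously reported procedures for each virus; no further conditions are given for the HSV-2, CMV, HIV or EBV assays.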

Data set [2] deals with HCV. As to the kind of experiment: Anti-HCV activity in Huh-Luc/neo cell line, luciferase activity after 3-day treatment. In kind it is cell-based, Hepatitis C virus. To be noted: Hepatitis C virus, 72 h; at 3 μM, Huh-Luc/neo cells, 3 days; read-out: HCV percent of inhibition.
For data set [3], the system named is CMV. As to the kind of experiment: In vitro antiviral assay for CMV. To be noted: Human betaherpesvirus 5, read-out: Antiviral Activities (EC50, μM) CMV. In kind it is cell-based, cytomegalovirus. The method in brief:
as §1

The term EC50 denotes the concentration needed to bring the measured effect to its halfway point. Broadly, the inhibition is the relative decrease from the control value, in per cent. What is called melting point is the temperature of the solid-liquid transition.

On to `O=C1OCc2c1cc1ccc3c(c1c2-c1ccc2c(c1)OCO2)OCO3` [Compound 2, 10-Benzo[1,3]dioxol-5-yl-9H-furo[3′,4′:6,7]naphtho[1,2-d][1,3]dioxol-7-one, reference compound], for which the EC50 in data set [1] is 35 µM; in data set [3] it was 7.3 µM. For the same compound, the inhibition at 3 µM in data set [2] turned out to be 64%.

For `COc1ccc(-c2c3c(cc4ccc5c(c24)OCO5)C(=O)NC3)cc1OC` [Compound 22, 10-(3,4-Dimethoxy-phenyl)-8,9-dihydro-1,3-dioxa-8-aza-dicyclopenta[a,g]naphthalen-7-one], the melting point was 258 °C (dec.). Further, the EC50 in data set [1] amounted to 0.5 µM. The inhibition at 3 µM in data set [2] was found to be 80%.
